One data set has as its system cotton aphid. In words: Residual insecticidal activity test on sprayed cotton plants. The note with it: 72 h exposure; for Percent Mortality 3 DAT (greenhouse) / Percent Mortality 3 DAT (simulated sunlight): 3 day residual; for Percent Mortality 3 DAT (greenhouse) / Percent Mortality 5 DAT (greenhouse): greenhouse environment; for Percent Mortality 3 DAT (simulated sunlight): simulated sunlight environment; for Percent Mortality 0 DAT: infested 0 days after treatment; for Percent Mortality 5 DAT (greenhouse): 5 day residual. In kind it is in vivo, Aphis gossypii. The method, then:
Certain N-Substituted azacyclic compounds where the N-substituent is O^− (the N-oxides) of the present invention were also tested to determine their residual insecticidal activity. These tests were conducted in the following manner:
For each rate of application of test compound, a 15 mL aliquot of test solution was prepared. Sufficient test compound was dissolved in 1.5 mL of acetone to provide an application rate as high as 1200 grams/Ha. Each solution was then added to 13.5 mL of water containing 300 ppm of a surfactant. There were four replicates for each rate of application of test compound, and all tests included a known chemical standard as well as a standard of water and untreated checks.
A maximum of 14 appropriately sized cotton plants for each rate of application and replicate were arranged in a 28 pot plastic flat and sprayed with the 15 mL sample of test compound using an traveling boom sprayer equipped with a cone spray tip at a rate of 30 gallons/acre under a pressure of 40-44 psi. The untreated checks were sprayed first, followed by the test compounds and standards, all in order of lowest to highest rates of application. Once the spraying was complete, the test plants were allowed to air-dry on the conveyor on which they were sprayed.
In the test to determine residual activity (0 Day Residual) one set of dry plants was infested with leaf cuttings covered with about 25 cotton aphids taken from cotton plants in an aphid colony. The cotton plants were then maintained in a greenhouse or in an atmosphere of simulated direct sunlight for 72 hours after which time cotton aphid mortality was determined.
A second set of dry test plants treated with test compounds were maintained for three days (3 Day Residual), then infested with cotton aphid. The infested plants were maintained and evaluated for cotton aphid mortality after 72 hours as set forth above. Other residual activity periods are optionally evaluated also, for example a 5 day residual.
At the end of the 72 hour exposure period the numbers of live insects were counted a percent mortality of aphids was calculated based on the number of live insects present and the number that were infested onto the plants.

Data set [1] concerns cotton aphid (Aphis gossypii). Description: Translaminar insecticidal activity test on cotton leaves, N-oxides versus free amines. It counts as in vivo. The method, then: Certain N-Substituted azacyclic compounds where the N-substituent is O^− (the N-oxides) of the present invention were tested to determine their translaminar characteristics as evidenced by activity against cotton aphid (Aphis gossypii) in comparison with their corresponding free amine derivatives. These tests were conducted in the following manner: For each compound tested, one cotton plant with two mature leaves was selected. On the top of one of the leaves a sticky material used for trapping insects was applied using a stamp of about 2.5 centimeters in diameter. The process was repeated on the bottom of the second leaf of the cotton plant. A solution of 500 ppm of test compound (dissolved in 1:1 acetone and water containing a small amount of surfactant) was then applied to the entire side of each leaf opposite the side stamped with the sticky material using a saturated cotton swab. Upon completion of the application of the test compounds, the cotton plants were maintained in a growth chamber for about 18 hours. After this time the leaves of the test plant were infested with a known number of cotton aphids by placing an infested leaf cutting from the cotton aphid colony directly over the sticky material on each leaf. The leaf cutting on the bottom of a leaf of the test plant was secured to the leaf with a pin. The treated and infested cotton plants were then maintained in a chamber, during which time they were evaluated at daily intervals of from one to up to eight days. A test compound was termed active (A) if the top and bottom of the leaves of the test plant were mostly free of aphids (80% to 100%) when compared to untreated controls. […]

Molecules are shown by their SMILES.

Turning to `Cc1noc(C2C[N+]3([O-])CCC2C3)n1` (centres unmarked) [Compound 396, N-Oxide of 5-(4-azabicyclo[2.2.1]hept-2-yl)-3-methyl-1,2,4-oxadiazole], the “Percent Mortality 3 DAT (greenhouse)” value with cotton aphid (Table 3, 224 g/ha) came to 98%; in the data set on cotton aphid (Table 3, 560 g/ha) it was 100%; with cotton aphid (Table 3, 1120 g/ha) it was 100%. Besides, the “Percent Mortality 3 DAT (simulated sunlight)” value in the data set with cotton aphid (Table 3, 224 g/ha) is listed as 99%; with cotton aphid (Table 3, 560 g/ha) it was 100%; in the data set on cotton aphid (Table 3, 1120 g/ha), 100%; with cotton aphid (Table 4, 56 g/ha), 58%; in the data set on cotton aphid (Table 4, 112 g/ha), 70%; in the data set with cotton aphid (Table 4, 224 g/ha), 98%. Also, the “Percent Mortality 0 DAT” value with cotton aphid (Table 3, 224 g/ha) came out at 100%; with cotton aphid (Table 3, 560 g/ha) it was 100%; with cotton aphid (Table 3, 1120 g/ha), 100%; in the data set on cotton aphid (Table 4, 56 g/ha) it was 100%; in the data set with cotton aphid (Table 4, 112 g/ha), 100%; in the data set on cotton aphid (Table 4, 224 g/ha), 100%. Further, the “Percent Mortality 5 DAT (greenhouse)” value was 64% in the data set with cotton aphid (Table 4, 56 g/ha); 86% with cotton aphid (Table 4, 112 g/ha); 93% in the data set on cotton aphid (Table 4, 224 g/ha). The “Percent Mortality at Day After treatment (DAT), 2 DAT” value in data set [1] (500 ppm applied to opposite leaf side, 2 DAT) is recorded as “A (A is 80%-100% mortality when compared to the control)”. The “Percent Mortality at Day After treatment (DAT), 3 DAT” value in data set [1] (500 ppm applied to opposite leaf side, 3 DAT) was “A (A is 80%-100% mortality when compared to the control)”. The “Percent Mortality at Day After treatment (DAT), 5 DAT” value in data set [1] (500 ppm applied to opposite leaf side, 5 DAT) is recorded as “A (A is 80%-100% mortality when compared to the control)”. The “Percent Mortality at Day After treatment (DAT), 6 DAT” value in data set [1] (500 ppm applied to opposite leaf side, 6 DAT) is reported as “A (A is 80%-100% mortality when compared to the control)”. For the same compound, in data set [1] (500 ppm, whole 7-day period), the “mortality throughout the seven-day test period” value amounted to 100%.

(Values after patent US20060241098A1, “Pesticidal n-substituted azacyclic derivatives” (priority 2003, published 2006).)
